Measurements reported in article doi:10.1101/2025.01.28.635346v1 (bioRxiv, 2025).
Bridge positions count the residues as written; N and C are the ends. Side chains are listed from the residue outwards. Peptide text beside a SMILES is read from it. * marks the point of attachment. Butanoyl(4-(4-I-phenyl)) = O=C(CCCc1ccc(I)cc1)*; PEG2 = NCCOCCOCCC(=O)O

How the values were obtained:
Settings in all cases: for Emax: read-out: Max Response
OPRK1 [1] = target: T1, OPRK1 (Homo sapiens, UniProt P41145); experiment: Safetyscan47 GPCR cAMP, Agonist; assay type: cell-based
HRH1 [2] = target: T2, HRH1 (Homo sapiens, UniProt P35367); experiment: Safetyscan47 GPCR Calcium Flux, Agonist; assay type: cell-based
HTR1A = target: T3, HTR1A (Homo sapiens, UniProt P08908); experiment: Safetyscan47 GPCR cAMP, Agonist; assay type: cell-based
T3 sequence (P08908 1-422): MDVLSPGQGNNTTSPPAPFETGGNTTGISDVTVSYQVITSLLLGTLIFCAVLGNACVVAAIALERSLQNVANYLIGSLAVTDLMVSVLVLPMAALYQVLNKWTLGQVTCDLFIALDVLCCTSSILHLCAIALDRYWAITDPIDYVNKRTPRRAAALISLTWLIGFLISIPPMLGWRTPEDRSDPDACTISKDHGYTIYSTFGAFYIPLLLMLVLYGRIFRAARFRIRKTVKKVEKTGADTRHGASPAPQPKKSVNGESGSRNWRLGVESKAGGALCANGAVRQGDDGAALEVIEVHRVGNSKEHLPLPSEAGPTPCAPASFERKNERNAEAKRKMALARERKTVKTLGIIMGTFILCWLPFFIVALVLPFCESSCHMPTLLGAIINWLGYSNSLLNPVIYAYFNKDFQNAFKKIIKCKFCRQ

GABAA = GABAA (Homo sapiens, UniProt P14867+P18507+P47870); experiment: Safetyscan47 Ion Channel, Blocker; assay type: cell-based
Sequence of GABAA (P14867 28-456): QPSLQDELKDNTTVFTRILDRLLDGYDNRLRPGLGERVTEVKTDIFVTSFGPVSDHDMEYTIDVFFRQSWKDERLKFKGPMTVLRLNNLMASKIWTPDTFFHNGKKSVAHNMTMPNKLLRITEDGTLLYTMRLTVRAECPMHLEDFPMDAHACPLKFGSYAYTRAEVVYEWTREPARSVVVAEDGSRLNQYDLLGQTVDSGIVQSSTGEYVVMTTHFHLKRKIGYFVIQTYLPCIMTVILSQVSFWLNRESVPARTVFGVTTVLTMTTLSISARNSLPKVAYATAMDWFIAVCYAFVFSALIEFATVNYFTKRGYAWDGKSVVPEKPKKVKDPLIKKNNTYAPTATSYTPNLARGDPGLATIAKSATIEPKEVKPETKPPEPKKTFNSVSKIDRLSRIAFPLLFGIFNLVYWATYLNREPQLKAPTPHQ
Sequence of GABAA (P47870 26-512): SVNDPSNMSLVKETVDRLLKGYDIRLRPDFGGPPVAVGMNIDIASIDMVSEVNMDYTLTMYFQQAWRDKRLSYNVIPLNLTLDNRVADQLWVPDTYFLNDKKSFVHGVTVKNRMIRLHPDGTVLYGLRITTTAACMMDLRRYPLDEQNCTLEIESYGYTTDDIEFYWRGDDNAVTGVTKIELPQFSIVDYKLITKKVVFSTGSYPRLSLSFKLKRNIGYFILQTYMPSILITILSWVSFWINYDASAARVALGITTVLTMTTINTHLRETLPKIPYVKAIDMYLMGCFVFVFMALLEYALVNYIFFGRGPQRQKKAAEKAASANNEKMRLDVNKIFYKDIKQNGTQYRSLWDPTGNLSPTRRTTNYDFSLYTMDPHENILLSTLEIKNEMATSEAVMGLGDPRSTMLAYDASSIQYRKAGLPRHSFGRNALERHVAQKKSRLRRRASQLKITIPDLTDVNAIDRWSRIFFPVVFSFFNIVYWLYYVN
Sequence of GABAA (P18507 40-475): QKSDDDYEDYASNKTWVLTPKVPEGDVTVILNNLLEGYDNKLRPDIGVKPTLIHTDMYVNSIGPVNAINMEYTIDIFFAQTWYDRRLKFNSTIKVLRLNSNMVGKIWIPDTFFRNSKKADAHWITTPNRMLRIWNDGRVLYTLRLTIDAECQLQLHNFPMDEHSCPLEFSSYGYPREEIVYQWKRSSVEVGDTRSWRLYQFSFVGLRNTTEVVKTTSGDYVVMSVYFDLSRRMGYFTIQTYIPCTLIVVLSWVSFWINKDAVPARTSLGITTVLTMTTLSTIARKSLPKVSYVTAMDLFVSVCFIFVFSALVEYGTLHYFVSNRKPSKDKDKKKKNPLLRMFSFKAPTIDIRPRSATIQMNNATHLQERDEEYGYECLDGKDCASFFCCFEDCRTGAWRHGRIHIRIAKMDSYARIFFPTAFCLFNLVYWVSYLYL

ADRB2 = ADRB2 (Homo sapiens, UniProt P07550); experiment: Safetyscan47 GPCR cAMP, Antagonist; assay type: cell-based
Sequence of ADRB2 (P07550 whole entry): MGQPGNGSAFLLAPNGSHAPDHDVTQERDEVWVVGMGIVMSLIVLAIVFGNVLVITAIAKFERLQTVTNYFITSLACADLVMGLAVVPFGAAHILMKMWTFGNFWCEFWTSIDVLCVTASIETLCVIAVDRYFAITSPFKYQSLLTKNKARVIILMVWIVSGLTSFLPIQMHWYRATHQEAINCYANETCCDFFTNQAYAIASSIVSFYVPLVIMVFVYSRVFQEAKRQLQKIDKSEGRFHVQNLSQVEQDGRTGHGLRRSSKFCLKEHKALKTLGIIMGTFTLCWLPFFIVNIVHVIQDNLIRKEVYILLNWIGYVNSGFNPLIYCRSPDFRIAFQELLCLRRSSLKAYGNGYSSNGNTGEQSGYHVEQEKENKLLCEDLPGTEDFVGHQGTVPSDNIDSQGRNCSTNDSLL

CNR2 = CNR2 (Homo sapiens, UniProt P34972); experiment: Safetyscan47 GPCR cAMP, Antagonist; assay type: cell-based
Sequence of CNR2 (P34972 whole entry): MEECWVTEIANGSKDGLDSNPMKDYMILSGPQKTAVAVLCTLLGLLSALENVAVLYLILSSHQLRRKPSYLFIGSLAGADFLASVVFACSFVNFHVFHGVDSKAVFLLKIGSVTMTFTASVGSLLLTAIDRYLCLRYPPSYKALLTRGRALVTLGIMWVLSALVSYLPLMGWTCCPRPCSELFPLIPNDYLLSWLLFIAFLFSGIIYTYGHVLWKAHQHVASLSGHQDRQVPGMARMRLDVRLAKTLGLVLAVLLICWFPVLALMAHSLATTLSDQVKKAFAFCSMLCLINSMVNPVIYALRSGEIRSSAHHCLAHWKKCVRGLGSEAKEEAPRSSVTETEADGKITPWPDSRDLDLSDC

AR [3] = target: T4, AR (Homo sapiens, UniProt P10275); experiment: Safetyscan47 NHR Nuclear Translocation, Antagonist; assay type: cell-based
T4 sequence (P10275 1-920): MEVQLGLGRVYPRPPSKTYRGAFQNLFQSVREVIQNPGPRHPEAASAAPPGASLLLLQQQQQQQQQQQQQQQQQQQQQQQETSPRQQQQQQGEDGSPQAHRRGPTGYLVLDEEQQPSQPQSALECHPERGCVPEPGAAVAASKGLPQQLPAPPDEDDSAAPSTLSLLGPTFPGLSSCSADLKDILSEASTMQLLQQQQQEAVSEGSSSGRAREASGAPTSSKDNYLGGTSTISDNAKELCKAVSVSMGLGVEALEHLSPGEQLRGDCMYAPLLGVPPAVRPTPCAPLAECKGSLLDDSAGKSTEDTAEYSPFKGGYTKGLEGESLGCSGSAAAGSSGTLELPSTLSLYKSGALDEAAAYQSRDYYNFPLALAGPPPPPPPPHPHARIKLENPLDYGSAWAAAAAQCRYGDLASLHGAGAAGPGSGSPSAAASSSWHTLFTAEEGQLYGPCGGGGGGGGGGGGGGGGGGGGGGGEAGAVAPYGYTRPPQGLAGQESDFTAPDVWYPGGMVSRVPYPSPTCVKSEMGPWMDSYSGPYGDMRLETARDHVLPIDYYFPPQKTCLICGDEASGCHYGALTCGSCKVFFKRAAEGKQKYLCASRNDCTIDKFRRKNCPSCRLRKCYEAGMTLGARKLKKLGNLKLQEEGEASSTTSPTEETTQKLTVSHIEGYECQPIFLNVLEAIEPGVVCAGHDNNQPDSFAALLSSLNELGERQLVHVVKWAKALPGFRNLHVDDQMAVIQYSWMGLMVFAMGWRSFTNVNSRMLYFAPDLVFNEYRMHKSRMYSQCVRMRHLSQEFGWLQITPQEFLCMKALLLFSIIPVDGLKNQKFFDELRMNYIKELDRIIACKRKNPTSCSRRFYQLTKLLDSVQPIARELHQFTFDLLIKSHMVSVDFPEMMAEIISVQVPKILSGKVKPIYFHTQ

AR [4] = target: T4, AR; experiment: Safetyscan47 NHR Nuclear Translocation, Agonist; assay type: cell-based
NMDAR (1A/2B) [5] = target: T5, NMDAR (1A/2B) (Homo sapiens, UniProt Q05586+Q13224); experiment: Safetyscan47 Ion Channel, Opener; assay type: cell-based
PDE3A = PDE3A (Homo sapiens, UniProt Q14432); experiment: Safetyscan47 Non-Kinase Enzymes Enzymatic, Inhibitor; assay type: biochemical
HRH1 [6] = target: T2, HRH1; experiment: Safetyscan47 GPCR Calcium Flux, Antagonist; assay type: cell-based
HTR2B = HTR2B (Homo sapiens, UniProt P41595); experiment: Safetyscan47 GPCR Calcium Flux, Antagonist; assay type: cell-based
Sequence of HTR2B (P41595 whole entry): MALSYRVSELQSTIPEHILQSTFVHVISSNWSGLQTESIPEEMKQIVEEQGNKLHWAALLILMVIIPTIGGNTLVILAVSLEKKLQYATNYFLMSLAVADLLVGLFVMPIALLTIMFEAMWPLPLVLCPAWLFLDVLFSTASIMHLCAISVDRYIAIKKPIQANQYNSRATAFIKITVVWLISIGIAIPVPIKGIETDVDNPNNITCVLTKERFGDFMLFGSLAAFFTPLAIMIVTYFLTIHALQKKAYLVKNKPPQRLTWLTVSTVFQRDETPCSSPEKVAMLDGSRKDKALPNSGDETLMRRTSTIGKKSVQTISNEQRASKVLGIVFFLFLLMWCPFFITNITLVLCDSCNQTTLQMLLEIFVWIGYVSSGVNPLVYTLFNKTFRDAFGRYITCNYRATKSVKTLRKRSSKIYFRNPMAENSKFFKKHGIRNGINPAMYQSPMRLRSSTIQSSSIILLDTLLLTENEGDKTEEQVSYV

ADORA2A = ADORA2A (Homo sapiens, UniProt P29274); experiment: Safetyscan47 GPCR Calcium Flux, Antagonist; assay type: cell-based
OPRK1 [7] = target: T1, OPRK1; experiment: Safetyscan47 GPCR cAMP, Antagonist; assay type: cell-based
OPRD1 = OPRD1 (Homo sapiens, UniProt P41143); experiment: Safetyscan47 GPCR cAMP, Agonist; assay type: cell-based
Sequence of OPRD1 (P41143 whole entry): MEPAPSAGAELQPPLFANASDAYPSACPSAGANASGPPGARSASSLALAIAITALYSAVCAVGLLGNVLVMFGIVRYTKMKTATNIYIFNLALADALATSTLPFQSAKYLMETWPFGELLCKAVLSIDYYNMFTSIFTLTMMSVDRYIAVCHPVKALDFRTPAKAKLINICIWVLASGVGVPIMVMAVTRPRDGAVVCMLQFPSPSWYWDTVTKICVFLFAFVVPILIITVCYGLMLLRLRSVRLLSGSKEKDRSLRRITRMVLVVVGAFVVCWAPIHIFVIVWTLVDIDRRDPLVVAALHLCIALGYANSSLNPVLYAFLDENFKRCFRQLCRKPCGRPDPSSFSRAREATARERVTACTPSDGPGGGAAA

PDE4D2 = PDE4D2 (Homo sapiens, UniProt Q08499); experiment: Safetyscan47 Non-Kinase Enzymes Enzymatic, Inhibitor; assay type: biochemical
Sequence of PDE4D2 (Q08499 303-809 limits assumed): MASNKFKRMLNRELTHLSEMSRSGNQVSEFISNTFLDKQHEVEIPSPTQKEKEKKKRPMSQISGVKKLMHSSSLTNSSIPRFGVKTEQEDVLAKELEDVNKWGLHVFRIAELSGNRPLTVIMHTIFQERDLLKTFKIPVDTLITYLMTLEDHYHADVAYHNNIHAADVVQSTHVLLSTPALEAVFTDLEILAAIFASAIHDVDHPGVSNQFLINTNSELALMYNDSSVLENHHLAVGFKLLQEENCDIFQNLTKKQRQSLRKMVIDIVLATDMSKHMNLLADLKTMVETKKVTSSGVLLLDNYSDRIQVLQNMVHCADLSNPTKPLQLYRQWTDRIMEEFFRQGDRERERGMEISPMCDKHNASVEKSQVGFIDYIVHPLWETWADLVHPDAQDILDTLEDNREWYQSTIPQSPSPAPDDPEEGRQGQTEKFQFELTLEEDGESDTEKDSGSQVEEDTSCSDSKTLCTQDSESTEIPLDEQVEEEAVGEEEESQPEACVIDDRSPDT

ROCK1 = ROCK1 (Homo sapiens, UniProt Q13464); experiment: Safetyscan47 Kinases Binding, Inhibitor
Sequence of ROCK1 (Q13464 whole entry): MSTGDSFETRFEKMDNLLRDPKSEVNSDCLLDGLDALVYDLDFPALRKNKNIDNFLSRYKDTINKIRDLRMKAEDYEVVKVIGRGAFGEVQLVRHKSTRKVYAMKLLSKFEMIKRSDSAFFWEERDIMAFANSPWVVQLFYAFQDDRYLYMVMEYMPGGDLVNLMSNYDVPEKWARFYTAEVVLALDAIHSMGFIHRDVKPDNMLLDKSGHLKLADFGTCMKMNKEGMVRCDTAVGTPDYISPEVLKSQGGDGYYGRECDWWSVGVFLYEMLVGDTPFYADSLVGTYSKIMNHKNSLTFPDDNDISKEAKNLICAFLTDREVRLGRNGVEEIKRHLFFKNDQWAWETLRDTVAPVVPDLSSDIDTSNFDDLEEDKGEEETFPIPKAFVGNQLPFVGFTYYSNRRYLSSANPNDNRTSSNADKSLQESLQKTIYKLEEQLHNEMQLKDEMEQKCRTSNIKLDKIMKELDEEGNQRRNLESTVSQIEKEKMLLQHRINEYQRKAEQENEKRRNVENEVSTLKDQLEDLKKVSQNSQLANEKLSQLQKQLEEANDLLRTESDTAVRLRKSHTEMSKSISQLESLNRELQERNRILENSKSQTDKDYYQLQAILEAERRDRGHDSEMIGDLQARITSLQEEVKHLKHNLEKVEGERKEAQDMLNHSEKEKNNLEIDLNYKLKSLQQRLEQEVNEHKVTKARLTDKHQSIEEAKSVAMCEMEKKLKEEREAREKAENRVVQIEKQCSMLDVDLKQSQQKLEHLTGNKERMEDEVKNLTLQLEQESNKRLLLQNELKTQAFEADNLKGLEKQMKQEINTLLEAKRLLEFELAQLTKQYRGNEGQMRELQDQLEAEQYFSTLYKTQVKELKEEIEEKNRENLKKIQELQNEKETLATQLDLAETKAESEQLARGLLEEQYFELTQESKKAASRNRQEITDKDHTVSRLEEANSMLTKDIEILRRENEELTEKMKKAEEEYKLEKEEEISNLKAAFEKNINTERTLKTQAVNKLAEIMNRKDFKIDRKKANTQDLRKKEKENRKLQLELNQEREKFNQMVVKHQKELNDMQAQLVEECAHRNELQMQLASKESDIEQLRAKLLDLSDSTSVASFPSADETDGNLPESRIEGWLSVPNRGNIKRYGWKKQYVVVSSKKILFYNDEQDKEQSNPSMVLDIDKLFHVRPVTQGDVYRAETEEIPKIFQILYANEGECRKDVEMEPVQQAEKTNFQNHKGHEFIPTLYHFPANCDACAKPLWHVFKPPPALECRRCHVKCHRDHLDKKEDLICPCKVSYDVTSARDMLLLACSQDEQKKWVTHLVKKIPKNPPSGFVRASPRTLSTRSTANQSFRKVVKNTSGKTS

NMDAR (1A/2B) [8] = target: T5, NMDAR (1A/2B); experiment: Safetyscan47 Ion Channel, Blocker; assay type: cell-based

For `CC[C@H](C)[C@H](NC(=O)[C@H](CC(C)C)NC(=O)[C@H](CC(=O)O)NC(=O)CNC(=O)[C@H](CCCNC(=N)N)NC(=O)[C@@H](NC(=O)[C@H](Cc1ccccc1)NC(=O)[C@H](Cc1ccc(O)cc1)NC(=O)[C@@H]1CCC(=O)NCC(=O)NCC(=O)N[C@@H](CCCNC(=N)N)C(=O)NCC(=O)N[C@@H](Cc2c[nH]cn2)C(=O)N[C@@H](C(C)C)C(=O)N2CCC[C@H]2C(=O)N1)C(C)C)C(=O)N[C@@H](CO)C(=O)N[C@@H](Cc1ccccc1)C(=O)N[C@@H](Cc1ccc(O)cc1)C(=O)N[C@@H](CCCCN)C(=O)O` [lassotide 36] (GGRGHVPEYFVRGDLISFYK-OH; lactam N-8), the EC50 (OPRK1 [1]) was > 45 µM, the Emax (OPRK1 [1]) was 2.19% and the EC50 (HRH1 [2]) was > 45 µM. The Emax (HRH1 [2]) was 2.03%, the EC50 (HTR1A) was > 45 µM and the Emax (HTR1A) was 0%. The IC50 (GABAA) was > 45 µM, the Emax (GABAA) was 0% and the IC50 (ADRB2) was > 45 µM. For the same molecule, the Emax (ADRB2) was 8.93%, the IC50 (CNR2) was > 45 µM and the Emax (CNR2) was 1.15%. For the same molecule, the IC50 (AR [3]) was > 45 µM, the Emax (AR [3]) was 0% and the EC50 (AR [4]) was > 45 µM. The Emax (AR [4]) was 0%, the EC50 (NMDAR (1A/2B) [5]) was > 45 µM and the Emax (NMDAR (1A/2B) [5]) was 4.66%. For the same molecule, the IC50 (PDE3A) was > 45 µM, the Emax (PDE3A) was 0% and the IC50 (HRH1 [6]) was > 45 µM. The Emax (HRH1 [6]) was 0.3%, the IC50 (HTR2B) was > 45 µM and the Emax (HTR2B) was 11.8%. The IC50 (ADORA2A) was > 45 µM, the Emax (ADORA2A) was 0% and the IC50 (OPRK1 [7]) was > 45 µM. The Emax (OPRK1 [7]) was 0%, the EC50 (OPRD1) was > 45 µM and the Emax (OPRD1) was 6.18%. The IC50 (PDE4D2) was > 45 µM, the Emax (PDE4D2) was 0% and the IC50 (ROCK1) was > 45 µM. The Emax (ROCK1) was 19%, the IC50 (NMDAR (1A/2B) [8]) was > 45 µM and the Emax (NMDAR (1A/2B) [8]) was 0%.

With `CC[C@H](C)[C@H](NC(=O)[C@H](CC(C)C)NC(=O)[C@H](CC(=O)O)NC(=O)CNC(=O)[C@H](CCCNC(=N)N)NC(=O)[C@@H](NC(=O)[C@H](Cc1ccccc1)NC(=O)[C@H](Cc1ccc(O)cc1)NC(=O)[C@@H]1CCC(=O)NCC(=O)NCC(=O)N[C@@H](CCCNC(=N)N)C(=O)NCC(=O)N[C@@H](Cc2c[nH]cn2)C(=O)N[C@@H](C(C)C)C(=O)N2CCC[C@H]2C(=O)N1)C(C)C)C(=O)N[C@@H](CO)C(=O)N[C@@H](Cc1ccccc1)C(=O)N[C@@H](Cc1ccc(O)cc1)C(=O)N[C@@H](CCCCNC(=O)CCOCCOCCNC(=O)CCCc1ccc(I)cc1)C(=O)O` [lassotide 47] (GGRGHVPEYFVRGDLISFYK([PEG2-Butanoyl(4-(4-I-phenyl))])-OH; lactam N-8) the EC50 (OPRK1 [1]) was > 45 µM, the Emax (OPRK1 [1]) was 23.4% and the EC50 (HRH1 [2]) was > 45 µM. The Emax (HRH1 [2]) was 0%, the EC50 (HTR1A) was > 45 µM and the Emax (HTR1A) was 30.1%. The IC50 (GABAA) was > 45 µM, the Emax (GABAA) was 0% and the IC50 (ADRB2) was > 45 µM. For the same molecule, the Emax (ADRB2) was 32.8%, the IC50 (CNR2) was > 45 µM and the Emax (CNR2) was 2.1%. For the same molecule, the IC50 (AR [3]) was > 45 µM, the Emax (AR [3]) was 0% and the EC50 (AR [4]) was > 45 µM. For the same molecule, the Emax (AR [4]) was 0%, the EC50 (NMDAR (1A/2B) [5]) was > 45 µM and the Emax (NMDAR (1A/2B) [5]) was 3.52%. The IC50 (PDE3A) was > 45 µM, the Emax (PDE3A) was 0.63% and the IC50 (HRH1 [6]) was > 45 µM. The Emax (HRH1 [6]) was 0%, the IC50 (HTR2B) was > 45 µM and the Emax (HTR2B) was 13.4%. For the same molecule, the IC50 (ADORA2A) was > 45 µM, the Emax (ADORA2A) was 7.44% and the IC50 (OPRK1 [7]) was > 45 µM. The Emax (OPRK1 [7]) was 0%, the EC50 (OPRD1) was > 45 µM and the Emax (OPRD1) was 17.4%. The IC50 (PDE4D2) was > 45 µM, the Emax (PDE4D2) was 28.5% and the IC50 (ROCK1) was > 45 µM. The Emax (ROCK1) was 2.56%, the IC50 (NMDAR (1A/2B) [8]) was > 45 µM and the Emax (NMDAR (1A/2B) [8]) was 0%.
